Experimental data taken from article PMC11995216, “End-to-End Backbone Cyclization Enhances Passive Permeability of bRo5 Oligomeric Depsipeptides with Nonlinear Size Dependence” (ACS Medicinal Chemistry Letters, 2025).
Several values for one entry are separate records, joined by “and”; a condition that tells them apart may be missing. Identical values can stand only once. Like-named read-outs stand apart in the source and are kept apart here. Values belong to the molecule of their own block, whether it stands above or below them. Starred links: 1 amine or outer side, 2 acyl side, 3 side chain; linkers in the order of their positions; H or OH if unused. Non-standard residues stand in square brackets, D forms with d. Residues, ends and D or L forms follow the SMILES beside them. *: point of attachment. X2 = CCCCC[C@H](O*)C(=O)OCc1ccccc1; X1 = CCCCC[C@H](O[*:1])C(=O)[*:2]; Ahp(2) = CCCCC[C@H](N)C(=O)O; dNMeA = CN[C@H](C)C(=O)O; Boc = CC(C)(C)OC(=O)*

What was measured:
PAMPA [1] = settings: UV detection, initial concentration 500 uM
[2] = initial concentration 500 uM, UV detection
[3] = calculated using Supplement Equation 1, UV detection
[4] = UV detection
[5] = PAMPA, 500 uM
in vitro = settings: PAMPA, Papp
PAMPA [6] = settings: UV detection

%T ([3]; Well 1 / %T, Well 1): 0.33% and 0.28% | %T ([3]; Well 2 / %T, Well 2): 0.24% and 0.25% | %T ([3]; Well 3 / %T, Well 3): 0.27% | %T ([3]; Well 4 / %T, Well 4): 0.27% and 0.29% | %T ([3]; Well 5 / %T, Well 5): 0.24% and 0.29% | % recovery ([4]; Well 1 / %R, Well 1): 83% and 93% | % recovery ([4]; Well 2 / %R, Well 2): 93% and 94% | % recovery ([4]; Well 3 / %R, Well 3): 85% and 86% | % recovery ([4]; Well 4 / %R, Well 4): 86% and 90% | % recovery ([4]; Well 5 / %R, Well 5): 90% and 93% | Δ % diffusion [5]: ↑4% | Papp at 500 uM (in vitro): 1.81 ± 0.22 ×10⁻⁶ cm/s | Papp (PAMPA [6]; Papp (x 10^-6 cm/s) / experiment 1): 2.29 ×10⁻⁶ cm/s | Papp (PAMPA [6]; Papp (x 10^-6 cm/s) / experiment 2): 1.55 ×10⁻⁶ cm/s | Papp (PAMPA [6]; Papp (x 10^-6 cm/s) / experiment 3): 1.77 ×10⁻⁶ cm/s | Papp (PAMPA [6]; Papp (x 10^-6 cm/s) / experiment 4): 1.78 ×10⁻⁶ cm/s | Papp (PAMPA [6]; Papp (x 10^-6 cm/s) / experiment 5): 1.56 ×10⁻⁶ cm/s | Papp (PAMPA [6]; Papp (x 10^-6 cm/s) / experiment 6): 1.9 ×10⁻⁶ cm/s | Papp (PAMPA [6]; Papp (x 10^-6 cm/s) / experiment 7): 1.61 ×10⁻⁶ cm/s | Papp (PAMPA [6]; Papp (x 10^-6 cm/s) / experiment 8): 1.79 ×10⁻⁶ cm/s | Papp (PAMPA [6]; Papp (x 10^-6 cm/s) / experiment 9): 1.89 ×10⁻⁶ cm/s | Papp (PAMPA [6]; Papp (x 10^-6 cm/s) / experiment 10): 1.94 ×10⁻⁶ cm/s
SMILES: CCCCC[C@H](OC(=O)[C@@H](C)N(C)C(=O)[C@H](CCCCC)OC(=O)[C@@H](C)N(C)C(=O)[C@H](CCCCC)OC(=O)[C@@H](C)N(C)C(=O)[C@H](CCCCC)OC(=O)[C@@H](C)N(C)C(=O)[C@H](CCCCC)OC(=O)[C@@H](C)N(C)C(=O)OC(C)(C)C)C(=O)OCc1ccccc1 [Compound L1.5]
Acceptor Concentration (PAMPA [1]; Acceptor Concentration (uM) / experiment 1): 50.2 µM | Acceptor Concentration (PAMPA [1]; Acceptor Concentration (uM) / experiment 2): 38.4 µM | Acceptor Concentration (PAMPA [1]; Acceptor Concentration (uM) / experiment 3): 40.2 µM | Acceptor Concentration (PAMPA [1]; Acceptor Concentration (uM) / experiment 4): 40.8 µM | Acceptor Concentration (PAMPA [1]; Acceptor Concentration (uM) / experiment 5): 37.5 µM | Acceptor Concentration (PAMPA [1]; Acceptor Concentration (uM) / experiment 6): 47.1 µM | Acceptor Concentration (PAMPA [1]; Acceptor Concentration (uM) / experiment 7): 40.3 µM | Acceptor Concentration (PAMPA [1]; Acceptor Concentration (uM) / experiment 8): 41 µM | Acceptor Concentration (PAMPA [1]; Acceptor Concentration (uM) / experiment 9): 45.3 µM | Acceptor Concentration (PAMPA [1]; Acceptor Concentration (uM) / experiment 10): 48 µM | donor concentration after incubation ([2]; Well 1 / [donor], Well 1, standard curve): 366 µM and 419 µM | donor concentration after incubation ([2]; Well 2 / [donor], Well 2, standard curve): 425 µM and 429 µM | donor concentration after incubation ([2]; Well 3 / [donor], Well 3, standard curve): 387 µM and 389 µM | donor concentration after incubation ([2]; Well 4 / [donor], Well 4, standard curve): 390 µM and 406 µM | donor concentration after incubation ([2]; Well 5 / [donor], Well 5, standard curve): 412 µM and 419 µM

%T ([3]; Well 1 / %T, Well 1): 0.47% and 0.5% | %T ([3]; Well 2 / %T, Well 2): 0.47% and 0.52% | %T ([3]; Well 3 / %T, Well 3): 0.49% | %T ([3]; Well 4 / %T, Well 4): 0.48% and 0.5% | %T ([3]; Well 5 / %T, Well 5): 0.49% and 0.5% | % recovery ([4]; Well 1 / %R, Well 1): 97% and 99% | % recovery ([4]; Well 2 / %R, Well 2): 94% | % recovery ([4]; Well 3 / %R, Well 3): 96% | % recovery ([4]; Well 4 / %R, Well 4): 92% and 84% | % recovery ([4]; Well 5 / %R, Well 5): 98% and 88% | LogPapp [5]: -5.40 ± 0.05 | Δ % diffusion [5]: ↑19% | Papp at 500 uM (in vitro): 3.97 ± 0.46 ×10⁻⁶ cm/s | Papp (PAMPA [6]; Papp (x 10^-6 cm/s) / [row 1]): 3.57 ×10⁻⁶ cm/s | Papp (PAMPA [6]; Papp (x 10^-6 cm/s) / [row 2]): 4.24 ×10⁻⁶ cm/s | Papp (PAMPA [6]; Papp (x 10^-6 cm/s) / [row 3]): 3.98 ×10⁻⁶ cm/s | Papp (PAMPA [6]; Papp (x 10^-6 cm/s) / [row 4]): 4.55 ×10⁻⁶ cm/s | Papp (PAMPA [6]; Papp (x 10^-6 cm/s) / [row 5]): 4.01 ×10⁻⁶ cm/s | Papp (PAMPA [6]; Papp (x 10^-6 cm/s) / [row 6]): 3.22 ×10⁻⁶ cm/s | Papp (PAMPA [6]; Papp (x 10^-6 cm/s) / [row 7]): 3.32 ×10⁻⁶ cm/s | Papp (PAMPA [6]; Papp (x 10^-6 cm/s) / [row 8]): 4.45 ×10⁻⁶ cm/s | Papp (PAMPA [6]; Papp (x 10^-6 cm/s) / [row 9]): 4.33 ×10⁻⁶ cm/s | Papp (PAMPA [6]; Papp (x 10^-6 cm/s) / [row 10]): 4.04 ×10⁻⁶ cm/s
SMILES: CCCCC[C@H](NC(=O)[C@@H](C)N(C)C(=O)OC(C)(C)C)C(=O)N(C)[C@H](C)C(=O)O[C@@H](CCCCC)C(=O)N(C)[C@H](C)C(=O)O[C@@H](CCCCC)C(=O)N(C)[C@H](C)C(=O)O[C@@H](CCCCC)C(=O)OCc1ccccc1 [Compound L2.1] (Boc-[dNMeA][Ahp(2)][dNMeA][X1][dNMeA][X1][dNMeA]-X2)
Acceptor Concentration (PAMPA [1]; Acceptor Concentration (uM) / [row 1]): 83.2 µM | Acceptor Concentration (PAMPA [1]; Acceptor Concentration (uM) / [row 2]): 94.6 µM | Acceptor Concentration (PAMPA [1]; Acceptor Concentration (uM) / [row 3]): 90.8 µM | Acceptor Concentration (PAMPA [1]; Acceptor Concentration (uM) / [row 4]): 98.2 µM | Acceptor Concentration (PAMPA [1]; Acceptor Concentration (uM) / [row 5]): 93.2 µM | Acceptor Concentration (PAMPA [1]; Acceptor Concentration (uM) / [row 6]): 76.9 µM | Acceptor Concentration (PAMPA [1]; Acceptor Concentration (uM) / [row 7]): 74.6 µM | Acceptor Concentration (PAMPA [1]; Acceptor Concentration (uM) / [row 8]): 97.5 µM | Acceptor Concentration (PAMPA [1]; Acceptor Concentration (uM) / [row 9]): 85.3 µM | Acceptor Concentration (PAMPA [1]; Acceptor Concentration (uM) / [row 10]): 83.9 µM | donor concentration after incubation ([2]; Well 1 / [donor], Well 1): 402 µM and 418 µM | donor concentration after incubation ([2]; Well 2 / [donor], Well 2): 377 µM and 393 µM | donor concentration after incubation ([2]; Well 3 / [donor], Well 3): 388 µM and 368 µM | donor concentration after incubation ([2]; Well 4 / [donor], Well 4): 363 µM and 335 µM | donor concentration after incubation ([2]; Well 5 / [donor], Well 5): 395 µM and 356 µM
